Results on four compounds are retold here after paper PMC12298629, “New Derivatives of Caracasine Acid with Anti-Leukemic Activity and Limited Effectiveness in Spheroid Cultures” (Pharmaceuticals, 2025).

Structures are written as SMILES.

In assay [1] the test system is BJ LD. Nature of the assay: Cytotoxic MTS assay, BJ LD fibroblasts (doxorubicin-resistant). In kind it is cell-based. The settings on record: Fibroblast, doxorubicin-resistant human fibroblasts, 72 h, median of five assays. An excerpt:
(§1) The cancer cell lines used in the cytotoxic assays were acquired from the American Tissue Culture Collection (ATCC) (Manassas, VA, USA) and maintained as described previously. The MRC-5 and BJ human fibroblasts were used as non-tumoral control cells. The (MRC-5 LD and BJ LD) are also human fibroblast cell lines resistant to doxorubicin. […] The Raji and Ramos cell lines correspond to B-cell leukemia. Other cells, such as U2OS, represent a child osteosarcoma, while HCT116 is a colorectal tumor cell line. (HCT116p53^−/−, Horizon Discovery Ltd., Cambridge, UK) is a similar cell line with its p53 gene knocked down, serving as a model of human cancer frequently associated with a poor prognosis. The cells were maintained in Nunc/corning 80 cm^2 plastic tissue culture flasks and cultured in a cell culture medium according to ATCC or Horizon recommendations (McCoy, DMEM/RPMI 1640 with 5 g/L glucose, 2 mM glutamine, 100 U/mL penicillin, […] streptomycin, 10% fetal calf serum, and NaHCO3). The compounds were freshly dissolved in DMSO. The final concentration of DMSO was 0.01% in the cell culture.
(§2) The in vitro cytotoxicity of compounds (1–7) was assessed using the standard 3-(4,5-dimethyl-thiazol-2yl)-5-(3-carboxymethoxyphenyl)-2-(sulfophenyl)-2H-tetrazolium (MTS). The assay was performed at the Institute of Molecular and Translational Medicine using a robotic platform (High-ResBiosolutions, Beverly, MA, USA). Cell suspensions were prepared and diluted according to the specific cell type and the expected target cell density (25,000–35,000 cells/mL, based on cell growth characteristics). An automatic pipettor (30 μL) was used to add cells into 384-well microtiter plates. All tested compounds were dissolved in 100% DMSO, and four-fold dilutions of the intended test concentrations were added in 0.15 μL aliquots at time zero to the microtiter plate wells by the echo acoustic non-contact liquid handler Echo550 (Labcyte, San Jose, CA, USA). The assays were accomplished in technical duplicates and at least three biological replicates. The cells were incubated with the tested compound for 72 h at 37 °C in a 5% CO2 atmosphere with 100% humidity. At the end of the incubation period, cells were assayed using the MTS test. Aliquots (5 μL) of the MTS stock solution were pipetted into each well and incubated for 1–4 h. After this incubation period, the optical density (OD) was measured at 490 nm using an Envision reader (PerkinElmer, Waltham, MA, USA). Tumor cell survival (TCS) was calculated using the following equation: TCS = (OD drug-exposed well/mean OD control wells) × 100%. The IC50 value, representing the concentration of the compound lethal to 50% of the tumor cells, was calculated from the corresponding dose-response curves using Dotmatics software (Updated version 2022, London, UK). After three days of incubation on the cancer cell lines and normal fibroblasts, the […] (IC50) were obtained. Five assays were performed for each cell line. The standard error of the assays was lower than 10%, as assessed by the triplicate assays.
Background: Formazan colour is commonly taken as a measure of viable cells.

In assay [2] the test system is MRC-5. Nature of the assay: Cytotoxic MTS assay, MRC-5 fibroblasts. The settings on record: MRC5, human fibroblasts, 72 h, median of five assays. In kind it is cell-based.
Source text: as §1, §2

For assay [3], the system named is RAJI. As to the kind of experiment: Cytotoxic MTS assay, Raji. The settings on record: Raji, human leukemia cell line, 72 h, median of five assays. It is filed as cell-based.
Source text: as §1, §2

Assay [4] concerns A549 spheroids. Nature of the assay: Spheroid viability assay (CellTiter-Glo 3D), A549 spheroids. It is filed as cell-based. The settings on record: A549, human tumors spheroids, 72 h, 100 pM to 50 μM. The method, then: Spheroid culture aims to analyze the drug’s effect on complex structures resembling solid tumors. The spheroids were prepared using the specific nonadherent plates for spheroid formation (Nunc Sphera, Thermo Fisher, Waltham, MA, USA) according to the simple protocol outlined by the manufacturer. The cell lines HCT116 parental, HCT116KOTp53, A549, and U2OS were cultured at a density of 2500 cells per well using medium containing 10% fetal calf serum and antibiotics: McCoy’s 5A medium for HCT116, F-12K (Kaighn’s Modified) for A549, and Dulbecco’s Modified Eagle Medium (DMEM). The cells were grown in culture for 48 h as recommended by the manufacturer and as described by Das et al. and Muñoz-Garcia et al..
The cell viability of the treated spheroids was assessed using the kit CellTiter-Glo 3D (Promega Corporation, Madison, WI, USA). The kit is designed to measure ATP as an indicator of viability, generating a luminescent readout that is more sensitive than colorimetric or fluorescence-based methods. The spheroids were cultivated with compounds at concentrations ranging from 100 pM to 50 μM in triplicate for 72 h, and the luminescence was measured using the Enspire apparatus (PerkinElmer). A standard curve was performed for each analysis as recommended by the manufacturer.
On the technique in general: ATP-based viability assays read luminescence as a measure of living cells.

In assay [5] the test system is caspase 8. Nature of the assay: Caspase 8 activity in lysed HCT116 cells from 2D and spheroids. The note with it: 12 h; for Caspase 8 activity, spheroid culture: HCT116 parental spheroids, 25 µM (cisplatin 15 μM); for Caspase 8 activity, 2D culture: HCT116 parental, 25 µM. It is filed as cell-based, human. On the procedure: (§3) The assay was designed to evaluate the impact of various compounds on caspase activity using a standardized quantity of cell protein lysates after 12 h of incubation. The parental line HCT116 served as the basis for these experiments. Three distinct caspases were examined employing the fluorescence assay kits from Calbiochem (San Diego, CA, USA), specifically a fluorometric caspase-8 assay kit and a fluorimetric caspase-3 assay kit. Additionally, the fluorometric kit from Abcam was utilized to assess caspase-9 activity. Due to the variations in protocols for each caspase, separate plates were prepared for each assay, encompassing both two-dimensional (2D) cell cultures and spheroids. The compound concentrations were established at 25 µM, and assays were conducted in quintuplicate following a 12-h incubation period. The cells were harvested from the plates using the standard trypsin-EDTA solution (Merck Sigma Aldrich, Saint Louis, MO, USA), washed, and counted before lysis, as described in each kit. Cell processing adhered to the guidelines provided by the respective companies, and protein concentration was calculated and standardized using the standard BCA assay. Fluorescent readings were captured using the Enspire apparatus (Perkin-Elmer, MA, USA). Positive controls utilized included staurosporine at a concentration of 5 μM and cisplatin at 15 μM. The kits provided their own standards; however, to normalize all the readings between cultures, types, and treatments, the results were expressed as a percentage relative to the positive control, staurosporine, in 2D culture. […] A total of three separate assays were conducted for each caspase.

For assay [6], the system named is caspase 9. Nature of the assay: Caspase 9 activity in lysed HCT116 cells from 2D and spheroids. It is filed as cell-based, human. The settings on record: 12 h; for Caspase 9 activity, spheroid culture: HCT116 parental spheroids, 25 µM (cisplatin 15 μM); for Caspase 9 activity, 2D culture: HCT116 parental, 25 µM. The method, then:
as §3

In general, IC50 refers to the concentration that gives 50% inhibition. Lower therefore signals inhibition by little substance. `C=C1C(=O)C23CCC(C(=C)C)C(C)(CCC(=O)OC)C2CCC1C3` (stereo not drawn) [Compound 2, Caracasine]: the IC50 in assay [1] is 7.42 µM; in assay [2], 6.84 µM; in assay [3], 1.45 µM; in assay [4], above 50 µM. Also, the “Caspase 8 activity, spheroid culture” value in assay [5] was “absence of caspase activity”. In assay [6], the “Caspase 9 activity, spheroid culture” value is “absence of caspase activity”.
For `C=C1C(=O)C23CCC(C(=C)C)C(C)(CCC(=O)OC(C)=O)C2CCC1C3` (stereo not drawn) [Compound 7, Caracasine-Acetic Anhydride], the IC50 in assay [1] is 7.63 µM; in assay [2] it was 6.45 µM; in assay [3], 2.21 µM; in assay [4] it was above 50 µM. Also, the “Caspase 8 activity, spheroid culture” value in assay [5] is on record as “absence of caspase activity”. Moreover, in assay [6], the “Caspase 9 activity, spheroid culture” value is given as “absence of caspase activity”.
For `C=C(C)C1CCC23CC(CCC2C1(C)CCC(=O)OC(C)=O)C(C)C3=O` (single isomer, unassigned; ent-3) [Compound 6, Ent-3,4-Seco-15-Oxo-Kaur-4(19)-en-Acetic Anhydride], the IC50 in assay [1], in assay [2], in assay [3] and in assay [4] was above 50 µM each time. Also, the “Caspase 8 activity, 2D culture” value in assay [5] is given as “did not induce caspase activity”. For the same compound, in assay [6], the “Caspase 9 activity, 2D culture” value was “did not induce caspase activity”.
For the compound `C=C(C)C1CCC23CC(CCC2C1(C)CCC(=O)O)C(C)C3=O` (single isomer, unassigned; ent-3) [Compound 5, Ent-3,4-Seco-15-Oxo-Kaur-4(19)-en-3-Oic Acid], the IC50 in assay [1], in assay [2], in assay [3] and in assay [4] was above 50 µM in each case. The “Caspase 8 activity, 2D culture” value in assay [5] is “did not induce caspase activity”. In addition, in assay [6], the “Caspase 9 activity, 2D culture” value is “did not induce caspase activity”.
